Source: PubChem BioAssay AID1845216 (Molecular Pharmacology Branch, DTP, NCI, 2023)

Test system: SW 982 tumor spheroid viability
Assay: Anticancer human tumor SW 982 cell line growth inhibition;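 also: spheroids exposed to compound for 7 days before readout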
Conditions: spheroids with HUVEC and MSC; for IC50: curve of first compound; for viability, T/C: stronger effect = lower value
Excerpt: Multicellular complex tumor spheroid response to DNA repair inhibitors in combination with DNA-damaging drugs
This study explores the anticancer activities of DNA-damaging drugs and inhibitors of DNA damage repair, both as single agents and in combinations. Complex tumor spheroids comprised of malignant cells, endothelial cells and mesenchymal stem cells served as an in vitro model for human solid tumors. This model system incorporates physiologically relevant features and patient-derived or established malignant cell lines with clinically relevant genetic alterations from many tumor types. Twenty-six patient-derived or established malignant cell lines were evaluated representing sarcoma, melanoma, small cell lung cancer (SCLC), non-small cell lung cancer (NSCLC), as well as bladder, ovarian and pancreatic cancers. The concentration ranges selected for each drug and investigational agent were based upon clinically achievable concentrations if the clinical Cmax of the agent was known.
Compounds. The drugs and compounds olaparib (NSC753686), talazoparib (NSC767125), berzosertib (NSC777718), elimusertib (NSC800525), nedisertib (NSC802822), VX-984 (NSC792969), AZD-1390 (NSC803789), temozolomide (NSC362856), topotecan (NSC609699), trabectedin (NSC813783), staurosporine (NSC755774), and gemcitabine (NSC613327) were obtained from the National Cancer Institute (NCI) Developmental Therapeutics Program Chemical Repository. The FDA-approved anticancer drug set is available from the Developmental Therapeutics Program at https://dtp.cancer.gov/organization/dscb/obtaining/available_plates.htm. […] The stock solutions were prepared in dimethyl sulfoxide (DMSO, Sigma-Aldrich, St. Louis, MO, cat. D2650) at 400-fold the tested concentration and stored at -70 degrees C. Prior to their use, the stock solutions were diluted in fresh medium and the final DMSO concentration in the assay was 0.25% (v/v). All drugs and investigational agents were tested over a range starting from a high concentration at or near the clinical Cmax and decreasing in half-log increments. If the clinical Cmax for an agent had not been determined, the highest concentration tested was 10 microM.
Cell Lines. The patient-derived cancer cell (PDC) lines: 156681-154-R-J1-PDC, 283228-195-R-J1-PDC, 287954-098-R-J1-PDC, 292921-168-R-J2-PDC, 349418-098-R-PDC, 425362-245-T-J1-PDC, 556581-035-R-J1-PDC, and BL0293-F563-PDC were received from the NCI Patient-Derived Models Repository (PDMR, https://pdmr.cancer.gov). The established cell lines HS-SY-2 (RRID:CVCL_8719), MPNST, and SYO-1 (RRID:CVCL_7146) were obtained from the Sloan Kettering Institute. The alveolar soft parts sarcoma cell line ASPS-1 (RRID:CVCL_S738) was established at the NCI and grown from internal seed stocks. The following established cell lines were purchased from the American Type Culture Collection (ATCC, Manassas, VA): G-401 (ATCC, cat. CRL-1441, RRID:CVCL_0270), SW982 (ATCC, cat. HTB-93, RRID:CVCL_1734), VA-ES-BJ (ATCC, cat. CRL-2138, RRID:CVCL_1785), NCI-H719 (ATCC, cat. CRL-5837, RRID:CVCL_1582), NCI-H196 (ATCC, cat. CRL-5823, RRID:CVCL_1509), NCI-H841 (ATCC, cat. CRL-5845, RRID:CVCL_1595), NCI-H1618 (ATCC, cat. CRL-5879, RRID:CVCL_1480), NCI-H1876 (ATCC, cat. CRL-5902, RRID:CVCL_1503), DMS 114 (ATCC, cat. CRL-2066; RRID:CVCL_1174), NCI-H211 (ATCC, cat. CRL-5824; RRID:CVCL_1529), and SW 1271 (ATCC, cat. CRL-2177, RRID:CVCL_1716). The small cell lung cancer cell line COR-L88 was purchased from Sigma-Aldrich (cat. 92031917-1VL, RRID:CVCL_1141). The non-small cell lung cancer cell lines NCI-H226 (RRID:CVCL_1544) and NCI-H322M (RRID:CVCL_1557) were established at the NCI and grown from internal seed stocks. Pooled donor human umbilical vein endothelial cells (HUVEC, Lonza, cat. CC-2519) and human mesenchymal stem cells (hMSC, Lonza, cat. PT-2501) were purchased from Lonza (Walkersville, MD).
Cell Culture. All cells were maintained in an incubator at 37 degrees C and 5% CO2 with 95% humidity. […]

In the case of `Cc1cc(C)c(CNC(=O)c2cc(-c3ccc(CN4CCOCC4)cc3)cc3c2cnn3C2CCCC2)c(=O)[nH]1` + CC[C@@]1(O)C(=O)OCc2c1cc1n(c2=O)Cc2cc3c(CN(C)C)c(O)ccc3nc2-1, the IC50 (second compound 0.003 µM) is reported as > 10000 nM, the IC50 (second compound 0.00949 µM) is reported as > 10000 nM and the IC50 (second compound 0.03 µM) is reported as > 10000 nM. For the same compound, the IC50 (second compound 0.0949 µM) was > 10000 nM, the IC50 (second compound 0.3 µM) was 3030 nM and the viability, T/C (second compound 0.003 µM, first compound 0.0316 µM) was 96.8%. The viability, T/C (second compound 0.003 µM, first compound 0.1 µM) was 102%, the viability, T/C (second compound 0.003 µM, first compound 0.316 µM) was 103% and the viability, T/C (second compound 0.003 µM, first compound 1 µM) was 90.4%. It also gave a viability, T/C (second compound 0.003 µM, first compound 3.16 µM) of 85.9%, a viability, T/C (second compound 0.003 µM, first compound 10 µM) of 61.6% and a viability, T/C (second compound 0.00949 µM, first compound 0.0316 µM) of 96.1%. The viability, T/C (second compound 0.00949 µM, first compound 0.1 µM) was 86.6%, the viability, T/C (second compound 0.00949 µM, first compound 0.316 µM) was 86.5% and the viability, T/C (second compound 0.00949 µM, first compound 1 µM) was 85%. The viability, T/C (second compound 0.00949 µM, first compound 3.16 µM) was 83%, the viability, T/C (second compound 0.00949 µM, first compound 10 µM) was 63.3% and the viability, T/C (second compound 0.03 µM, first compound 0.0316 µM) was 97%. The viability, T/C (second compound 0.03 µM, first compound 0.1 µM) was 88.7%, the viability, T/C (second compound 0.03 µM, first compound 0.316 µM) was 101% and the viability, T/C (second compound 0.03 µM, first compound 1 µM) was 83.4%. It also gave a viability, T/C (second compound 0.03 µM, first compound 3.16 µM) of 86.2%, a viability, T/C (second compound 0.03 µM, first compound 10 µM) of 62.9% and a viability, T/C (second compound 0.0949 µM, first compound 0.0316 µM) of 87.7%. For the same compound, the viability, T/C (second compound 0.0949 µM, first compound 0.1 µM) was 87.4%, the viability, T/C (second compound 0.0949 µM, first compound 0.316 µM) was 85.2% and the viability, T/C (second compound 0.0949 µM, first compound 1 µM) was 89.6%. It also gave a viability, T/C (second compound 0.0949 µM, first compound 3.16 µM) of 75.6%, a viability, T/C (second compound 0.0949 µM, first compound 10 µM) of 61.7% and a viability, T/C (second compound 0.3 µM, first compound 0.0316 µM) of 63.7%. The viability, T/C (second compound 0.3 µM, first compound 0.1 µM) was 57.3%, the viability, T/C (second compound 0.3 µM, first compound 0.316 µM) was 54.7% and the viability, T/C (second compound 0.3 µM, first compound 1 µM) was 55%. The viability, T/C (second compound 0.3 µM, first compound 3.16 µM) was 52.3% and the viability, T/C (second compound 0.3 µM, first compound 10 µM) was 39%.

In the case of `Cc1sc2c(c1C)C(c1ccc(Cl)cc1)=NC(CC(=O)Nc1ccc(O)cc1)c1nnc(C)n1-2` (stereo not given) + CC[C@@]1(O)C(=O)OCc2c1cc1n(c2=O)Cc2cc3c(CN(C)C)c(O)ccc3nc2-1, the IC50 (second compound 0.003 µM) is reported as 285 nM, the IC50 (second compound 0.00949 µM) is reported as 553 nM and the IC50 (second compound 0.03 µM) is reported as 490 nM. For the same compound, the IC50 (second compound 0.0949 µM) was 450 nM, the IC50 (second compound 0.3 µM) was 254 nM and the viability, T/C (second compound 0.003 µM, first compound 0.00949 µM) was 112%. For the same compound, the viability, T/C (second compound 0.003 µM, first compound 0.03 µM) was 110%, the viability, T/C (second compound 0.003 µM, first compound 0.0949 µM) was 76.4% and the viability, T/C (second compound 0.003 µM, first compound 0.3 µM) was 49.8%. It also gave a viability, T/C (second compound 0.003 µM, first compound 0.949 µM) of 40.1%, a viability, T/C (second compound 0.003 µM, first compound 3 µM) of 30.5% and a viability, T/C (second compound 0.00949 µM, first compound 0.00949 µM) of 97%. It also gave a viability, T/C (second compound 0.00949 µM, first compound 0.03 µM) of 98.9%, a viability, T/C (second compound 0.00949 µM, first compound 0.0949 µM) of 81.5% and a viability, T/C (second compound 0.00949 µM, first compound 0.3 µM) of 63.8%. It also gave a viability, T/C (second compound 0.00949 µM, first compound 0.949 µM) of 36.9%, a viability, T/C (second compound 0.00949 µM, first compound 3 µM) of 36.4% and a viability, T/C (second compound 0.03 µM, first compound 0.00949 µM) of 97.1%. It also gave a viability, T/C (second compound 0.03 µM, first compound 0.03 µM) of 95.8%, a viability, T/C (second compound 0.03 µM, first compound 0.0949 µM) of 83.2% and a viability, T/C (second compound 0.03 µM, first compound 0.3 µM) of 58.4%. It also gave a viability, T/C (second compound 0.03 µM, first compound 0.949 µM) of 38.8%, a viability, T/C (second compound 0.03 µM, first compound 3 µM) of 29.8% and a viability, T/C (second compound 0.0949 µM, first compound 0.00949 µM) of 95.2%. The viability, T/C (second compound 0.0949 µM, first compound 0.03 µM) was 92.1%, the viability, T/C (second compound 0.0949 µM, first compound 0.0949 µM) was 85.9% and the viability, T/C (second compound 0.0949 µM, first compound 0.3 µM) was 57.8%. For the same compound, the viability, T/C (second compound 0.0949 µM, first compound 0.949 µM) was 35.5%, the viability, T/C (second compound 0.0949 µM, first compound 3 µM) was 29.2% and the viability, T/C (second compound 0.3 µM, first compound 0.00949 µM) was 73.5%. It also gave a viability, T/C (second compound 0.3 µM, first compound 0.03 µM) of 80.6%, a viability, T/C (second compound 0.3 µM, first compound 0.0949 µM) of 71% and a viability, T/C (second compound 0.3 µM, first compound 0.3 µM) of 45.6%. For the same compound, the viability, T/C (second compound 0.3 µM, first compound 0.949 µM) was 30.4% and the viability, T/C (second compound 0.3 µM, first compound 3 µM) was 22.9%.
